One data set concerns P388 mouse leukemia. The experiment in a line: P388 mouse leukemia model, survival time. The conditions noted are these: 1.25 mg/kg intraperitoneally on Study Day-1; female mice inoculated with P388 on Day-0. Format: in vivo. On the procedure:
The P388 mouse leukemia model was prepared according to the method described by Daoud and Juliano in Cancer Res. 48: 5518 (1986). Female mice were intraperitoneally inoculated with P388 mouse leukemia (1 million cells/0.1 ml) on Study Day-0. The study drugs were intraperitoneally injected on Study Day-1. […]

A further data set relates to intestinal membranes. The settings on record: Tagesson et al., Gut 26:369 (1985); cited from earlier work.

Regarding `CC[C@]1(O)C[C@H]2CN(CCc3c([nH]c4ccccc34)[C@@](C(=O)OC)(c3cc4c(cc3OC)N(C=O)[C@H]3[C@@](O)(C(=O)OC)[C@H](OC(C)=O)[C@]5(CC)C=CCN6CC[C@]43[C@@H]65)C2)C1` [Vincristin, vincristin], the “MEAN SURVIVAL TIME” value in the data set on P388 mouse leukemia is given as 21.2 days.

In the case of “sn-1-acyl-3-glycerophosphorylcholine [lyso-PC]”, the “concentration inducing histopathological damage to intestinal membranes” value with intestinal membranes was 0.01-1 mM.

The values are drawn from patent EP0726761B1, “MICROPARTICULAR PHARMACEUTICAL COMPOSITIONS IN MICELLAR FORM” (ISOMED, Inc., priority 1993, dated 1995).
